Earlier results in US6500450B1, “Composition for treating migraine headaches” (priority 1998, dated 2002).
Where a name gives a salt, the structure may show the parent alone.

Columns and labels:
migraine = settings: in vivo
[1] = system: migraine occurrence in patients
[2] = system: patients with recurrent migraines; settings: 49 patients
[3] = system: moderate to severe migraine headaches
[4] = 400 mg/day with breakfast for at least three months

For `CC(C)NCC(O)COc1cccc2ccccc12` (stereo not drawn) [Propranolol], the “efficacy in migraine prophylaxis” value (migraine) is given as “effective” and the side effects (migraine) is given as “fatigue, depression, impotence, insomnia, dizziness, and cold extremities”.
For `CN1C[C@H](C(=O)N[C@]2(C)O[C@@]3(O)[C@@H]4CCCN4C(=O)[C@H](Cc4ccccc4)N3C2=O)C=C2c3cccc4[nH]cc(c34)C[C@H]21` [ergotamine, ergotamine tartrate], the “patients with complete headache relief within three hours of taking the drug” value (patients with migraine; 1-mg rectal suppository, patients with migraine) is given as 73%, the “consequence of frequent use” value (patients with migraine; frequent use of the drug) is given as “rebound headache” and the side effects (patients with migraine; human, in vivo) is given as “nausea, vomiting, abdominal pain, muscle cramps, and occasionally, distal paresthesias”.
In the case of `CC[C@@H](CO)NC(=O)[C@@H]1C=C2c3cccc4c3c(cn4C)C[C@H]2N(C)C1` [methysergide, methysergide maleate], the “patients in whom migraine occurrence is reduced by more than half” value ([1]; 6 mg dose, migraine prophylaxis) is listed as 60% and the “adverse effect of long-term use” value ([1]; long-term use) is listed as “associated with retroperitoneal fibrosis”.
In the case of `Cc1cc2nc3c(=O)[nH]c(=O)nc-3n(C[C@H](O)[C@H](O)[C@H](O)CO)c2cc1C` [riboflavin], the side effects ([2]; 400 mg/day for at least three months) is listed as “One patient stopped treatment because of gastric intolerance, but no other side effects were reported”, the “fall in the mean number of migraine attacks” value [2, 4] is listed as 67% and the “improvement of migraine severity” value [2, 4] is listed as 68%.
In the case of `CNS(=O)(=O)Cc1ccc2[nH]cc(CCN(C)C)c2c1` [sumatriptan], the “reduction of the intensity of moderate to severe migraine headaches” value ([3]; dose of six milligrams, injectable) is listed as 70% and the side effects ([3]; stated for this type of drug) is listed as “distal paresthesias, tingling, heaviness, and a sensation of pressure”.
